Drawing on ChEMBL document CHEMBL5550160, “Leveraging a rationally designed veliparib-based anilide eliciting anti-leukemic effects for the design of pH-responsive polymer nanoformulation” (Eur J Med Chem, 2024), this text covers Activity and IC50 for one compound.

SMILES strings stand for the structures. Active and inactive are the calls of the source. The calls are words filed in the database; no cut-off is given here. Some results are limits rather than exact numbers.

For assay [1], the target named is T1, Histone deacetylase 1 (Homo sapiens, UniProt Q13547). The assay can be described thus: Inhibition of HDAC1 (unknown origin) using p53 residues 379 to 382 [RHKK(Ac)] as fluorogenic substrate assessed as residual activity at 1.37 x 10^-8M (reference value: 98.06%). Particulars: dose 1.37 10^-8M.
Assay [2] concerns the target Histone deacetylase 4 (Homo sapiens) (UniProt P56524). The assay can be described thus: Inhibition of HDAC4 (unknown origin) assessed as residual activity at 5.08 x 10^-10M (reference value: 98.90%). Particulars: dose 5.08 10^-10M.
In assay [3] the target is T2, Histone deacetylase 2 (Homo sapiens, UniProt Q92769). The assay can be described thus: Inhibition of HDAC2 (unknown origin) assessed as residual activity at 4.12 x 10^-8M (reference value: 99.81%). To be noted: dose 4.12 10^-8M.
The target of assay [4] is Histone deacetylase 4 (Homo sapiens) (UniProt P56524). The assay can be described thus: Inhibition of HDAC4 (unknown origin) assessed as residual activity at 3.33 x 10^-6M (reference value: 98.90%). Particulars: dose 3.33 10^-6M.
Assay [5] concerns HL-60. The assay can be described thus: Induction of apoptosis in human HL-60 cells assessed as chromatin condensation at 0.5 to 1 times IC50 by DAPI staining based microscopic analysis. The assay is classed as functional, cell-based.
The target in assay [6] is T3, Histone deacetylase 3 (Homo sapiens, UniProt O15379). The assay can be described thus: Inhibition of HDAC3 (unknown origin) using p53 residues 379 to 382 [RHKK(Ac)] as fluorogenic substrate assessed as residual activity at 3.70 x 10^-7M (reference value: 103.08%). To be noted: dose 3.7 10^-7M.
For assay [7], the target named is T2, Histone deacetylase 2. The assay can be described thus: Inhibition of HDAC2 (unknown origin) assessed as residual activity at 3.70 x 10^-7M (reference value: 99.81%). To be noted: dose 3.7 10^-7M.
The target in assay [8] is T1, Histone deacetylase 1. The assay can be described thus: Inhibition of HDAC1 (unknown origin) using p53 residues 379 to 382 [RHKK(Ac)] as fluorogenic substrate assessed as residual activity at 5.08 x 10^-10M (reference value: 98.06%). Particulars: dose 5.08 10^-10M.
Assay [9] addresses T4, Protein deacetylase HDAC6 (Homo sapiens) (UniProt Q9UBN7).
T4 sequence (whole entry): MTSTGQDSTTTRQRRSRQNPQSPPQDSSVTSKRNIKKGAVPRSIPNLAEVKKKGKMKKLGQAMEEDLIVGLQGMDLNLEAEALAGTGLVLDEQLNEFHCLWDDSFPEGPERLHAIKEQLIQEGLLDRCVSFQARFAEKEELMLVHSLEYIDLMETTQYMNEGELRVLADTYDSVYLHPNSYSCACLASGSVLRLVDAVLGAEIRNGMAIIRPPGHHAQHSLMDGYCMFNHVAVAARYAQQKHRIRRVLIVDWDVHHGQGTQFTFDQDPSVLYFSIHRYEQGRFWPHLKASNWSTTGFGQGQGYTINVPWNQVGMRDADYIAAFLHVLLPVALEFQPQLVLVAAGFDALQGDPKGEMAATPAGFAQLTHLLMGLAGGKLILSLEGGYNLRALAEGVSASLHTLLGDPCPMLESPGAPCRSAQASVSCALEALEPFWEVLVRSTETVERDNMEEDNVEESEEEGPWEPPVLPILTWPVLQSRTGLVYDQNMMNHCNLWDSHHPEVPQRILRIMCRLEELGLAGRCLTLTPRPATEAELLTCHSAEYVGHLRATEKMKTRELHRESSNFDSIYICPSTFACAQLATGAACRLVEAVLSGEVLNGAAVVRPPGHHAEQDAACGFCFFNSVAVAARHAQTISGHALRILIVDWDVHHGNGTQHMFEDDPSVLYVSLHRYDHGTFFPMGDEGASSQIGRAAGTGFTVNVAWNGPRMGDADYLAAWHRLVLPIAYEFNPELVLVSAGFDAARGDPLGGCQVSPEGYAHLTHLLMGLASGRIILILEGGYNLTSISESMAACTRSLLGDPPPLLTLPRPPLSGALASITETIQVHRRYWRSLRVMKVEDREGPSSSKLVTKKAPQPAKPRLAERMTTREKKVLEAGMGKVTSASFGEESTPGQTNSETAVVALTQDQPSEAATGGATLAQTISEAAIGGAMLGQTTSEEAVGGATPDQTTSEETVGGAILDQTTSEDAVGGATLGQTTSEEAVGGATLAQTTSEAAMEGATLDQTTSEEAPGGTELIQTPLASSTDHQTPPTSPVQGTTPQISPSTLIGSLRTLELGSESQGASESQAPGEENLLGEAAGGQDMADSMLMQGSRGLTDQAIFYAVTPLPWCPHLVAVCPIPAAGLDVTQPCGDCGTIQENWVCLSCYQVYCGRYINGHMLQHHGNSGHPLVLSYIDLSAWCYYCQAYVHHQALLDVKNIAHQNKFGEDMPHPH
The assay can be described thus: Inhibition of HDAC6 (unknown origin) using p53 residues 379 to 382 [RHKK(Ac)] as fluorogenic substrate assessed as residual activity at 4.12 x 10^-8M (reference value: 101.06%). To be noted: dose 4.12 10^-8M.

For assay [10], the target named is T1, Histone deacetylase 1. The assay can be described thus: Inhibition of HDAC1 (unknown origin) using p53 residues 379 to 382 [RHKK(Ac)] as fluorogenic substrate assessed as residual activity at 4.12 x 10^-8M (reference value: 98.06%). To be noted: dose 4.12 10^-8M.
Assay [11] has as its target Histone deacetylase 4 (Homo sapiens) (UniProt P56524). The assay can be described thus: Inhibition of HDAC4 (unknown origin) assessed as residual activity at 1.1 x 10^-6M (reference value: 98.90%). Particulars: dose 1.1 10^-6M.
In assay [12] the target is T2, Histone deacetylase 2. The assay can be described thus: Inhibition of HDAC2 (unknown origin) assessed as residual activity at 4.57 x 10^-9M (reference value: 99.81%). Particulars: dose 4.57 10^-9M.
The test system of assay [13] is HL-60. The assay can be described thus: Induction of cell cycle arrest in human HL-60 cells assessed as accumulation of cells at sub-G1 phase at 0.5 to 1 times IC50 by PI staining based flow cytometry analysis. The assay is classed as functional.
Assay [14] concerns the target T4, Protein deacetylase HDAC6 (Homo sapiens). The assay can be described thus: Inhibition of HDAC6 (unknown origin) using p53 residues 379 to 382 [RHKK(Ac)] as fluorogenic substrate assessed as residual activity at 1.11 x 10^-6M (reference value: 101.06%). To be noted: dose 1.1 10^-6M.
For another assay, the system named is FaDu. The assay can be described thus: cells. To be noted: Homo sapiens. The assay is classed as functional, cell-based.
Assay [15] concerns the target T3, Histone deacetylase 3. The assay can be described thus: Inhibition of HDAC3 (unknown origin) using p53 residues 379 to 382 [RHKK(Ac)] as fluorogenic substrate assessed as residual activity at 5.08 x 10^-10M (reference value: 103.08%). To be noted: dose 5.08 10^-10M.

T1 sequence (Q13547 whole entry, the tested form may be a part): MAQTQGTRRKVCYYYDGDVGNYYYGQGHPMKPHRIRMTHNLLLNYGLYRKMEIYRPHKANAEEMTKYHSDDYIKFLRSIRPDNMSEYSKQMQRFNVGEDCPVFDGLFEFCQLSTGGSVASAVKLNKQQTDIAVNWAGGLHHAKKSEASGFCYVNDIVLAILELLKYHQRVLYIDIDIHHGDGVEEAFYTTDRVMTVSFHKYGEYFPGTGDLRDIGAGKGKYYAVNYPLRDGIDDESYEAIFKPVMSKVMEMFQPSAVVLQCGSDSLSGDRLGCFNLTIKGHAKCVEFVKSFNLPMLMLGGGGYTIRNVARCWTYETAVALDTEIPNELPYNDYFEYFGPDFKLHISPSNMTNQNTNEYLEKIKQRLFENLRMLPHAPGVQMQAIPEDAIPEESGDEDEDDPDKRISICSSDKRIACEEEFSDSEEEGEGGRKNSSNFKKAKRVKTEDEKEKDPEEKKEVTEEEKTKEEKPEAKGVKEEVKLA
Sequence of Histone deacetylase 4 (Homo sapiens) (P56524 whole entry): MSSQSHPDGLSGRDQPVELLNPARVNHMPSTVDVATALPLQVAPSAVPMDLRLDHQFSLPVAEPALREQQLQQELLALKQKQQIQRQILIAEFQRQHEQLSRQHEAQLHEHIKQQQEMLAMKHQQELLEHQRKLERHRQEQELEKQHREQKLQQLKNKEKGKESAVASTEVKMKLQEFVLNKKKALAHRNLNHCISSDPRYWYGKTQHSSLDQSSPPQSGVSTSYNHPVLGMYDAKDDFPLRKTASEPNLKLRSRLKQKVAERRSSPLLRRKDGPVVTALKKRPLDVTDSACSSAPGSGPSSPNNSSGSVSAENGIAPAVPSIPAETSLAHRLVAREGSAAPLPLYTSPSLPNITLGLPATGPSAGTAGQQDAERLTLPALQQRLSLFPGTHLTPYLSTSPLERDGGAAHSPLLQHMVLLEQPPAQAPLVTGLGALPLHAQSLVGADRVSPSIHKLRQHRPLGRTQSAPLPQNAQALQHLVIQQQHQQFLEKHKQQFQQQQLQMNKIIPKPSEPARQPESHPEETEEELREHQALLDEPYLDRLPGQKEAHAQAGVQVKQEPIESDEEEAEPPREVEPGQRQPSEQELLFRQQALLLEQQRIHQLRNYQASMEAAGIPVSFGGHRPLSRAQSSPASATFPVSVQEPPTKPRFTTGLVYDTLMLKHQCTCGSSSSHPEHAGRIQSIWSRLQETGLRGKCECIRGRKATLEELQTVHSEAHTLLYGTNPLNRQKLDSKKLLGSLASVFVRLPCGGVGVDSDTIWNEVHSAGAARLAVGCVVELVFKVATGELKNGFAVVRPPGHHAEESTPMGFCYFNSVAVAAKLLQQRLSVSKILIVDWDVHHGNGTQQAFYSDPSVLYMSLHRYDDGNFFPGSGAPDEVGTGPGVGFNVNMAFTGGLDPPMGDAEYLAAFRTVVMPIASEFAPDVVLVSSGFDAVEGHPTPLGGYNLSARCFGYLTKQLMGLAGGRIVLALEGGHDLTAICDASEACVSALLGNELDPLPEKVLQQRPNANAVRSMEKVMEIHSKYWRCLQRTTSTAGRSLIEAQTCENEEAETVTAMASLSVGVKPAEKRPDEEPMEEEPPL
T2 sequence (Q92769 whole entry): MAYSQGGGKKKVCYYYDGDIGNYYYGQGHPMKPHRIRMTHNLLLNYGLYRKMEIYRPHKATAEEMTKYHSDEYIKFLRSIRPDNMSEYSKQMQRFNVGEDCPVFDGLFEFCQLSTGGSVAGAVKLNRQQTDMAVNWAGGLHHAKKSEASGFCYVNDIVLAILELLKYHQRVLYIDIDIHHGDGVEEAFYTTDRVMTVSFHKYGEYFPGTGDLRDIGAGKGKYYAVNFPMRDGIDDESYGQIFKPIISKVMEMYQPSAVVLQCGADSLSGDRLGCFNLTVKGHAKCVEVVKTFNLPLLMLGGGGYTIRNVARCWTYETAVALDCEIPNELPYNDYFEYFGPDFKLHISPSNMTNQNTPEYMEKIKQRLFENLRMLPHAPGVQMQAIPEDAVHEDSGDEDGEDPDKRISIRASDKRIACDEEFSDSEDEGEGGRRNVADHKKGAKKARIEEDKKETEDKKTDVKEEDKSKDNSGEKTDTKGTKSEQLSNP
T3 sequence (O15379 whole entry, the tested form may be a part): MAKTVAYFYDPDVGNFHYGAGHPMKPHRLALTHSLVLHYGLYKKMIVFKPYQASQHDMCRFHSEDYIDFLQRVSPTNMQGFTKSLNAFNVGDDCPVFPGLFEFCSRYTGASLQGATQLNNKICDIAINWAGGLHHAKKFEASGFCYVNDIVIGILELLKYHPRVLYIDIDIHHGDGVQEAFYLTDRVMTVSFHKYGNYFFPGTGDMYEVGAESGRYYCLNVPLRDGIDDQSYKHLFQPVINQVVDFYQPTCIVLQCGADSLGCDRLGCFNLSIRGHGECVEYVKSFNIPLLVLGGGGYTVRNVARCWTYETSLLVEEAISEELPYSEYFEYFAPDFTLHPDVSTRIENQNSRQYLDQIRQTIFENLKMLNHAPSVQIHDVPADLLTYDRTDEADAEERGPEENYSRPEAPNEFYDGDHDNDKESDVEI
Description for FaDu: Antiproliferative activity against human FaDu cells assessed as inhibition of cell growth by MTT assay

As usually defined, the IC50 is the concentration that inhibits the measured activity by half. A high value points to lower potency. For `NC(=O)c1cccc2[nH]c(-c3ccc(NCc4ccc(C(=O)Nc5ccccc5N)cc4)cc3)nc12`, the Activity on Histone deacetylase 1 [1] came out at 73.9%; in assay [2] it was 96.7%; on Histone deacetylase 2 [3] it was 69.7%; in assay [4], 94.3%; at Histone deacetylase 3 [6] it was 54.9%; on Histone deacetylase 2 [7], 33.5%. For the same compound, the Activity is 93.5% at Histone deacetylase 1 [8]; 99.2% in [9]; 51.3% on Histone deacetylase 1 [10]; 76.5% in assay [11]; 89.2% on Histone deacetylase 2 [12]; 79.8% in assay [14]. In addition, the Activity at Histone deacetylase 3 [15] is 107%. Moreover, the outcome in the assay with HL-60 [5] and in the assay with HL-60 [13] was inactive. In addition, the IC50 in the assay with FaDu is above 10 µM.
